Measurements from paper PMC10964662, “Domperidone inhibits cell proliferation via targeting MEK and CDK4 in esophageal squamous cell carcinoma” (Cancer Cell International, 2024).

Tests used:
[1] = molecular target: T1, MEK1 (Homo sapiens, UniProt Q02750); experiment: SPR (Biacore T200, CM5 chip); also pull-down, DARTS and in vitro kinase assay; assay type: binding
T1 construct: gene MAP2K1; active MEK1 human recombinant protein

[2] = molecular target: T2, MEK2 (Homo sapiens, UniProt P36507); experiment: as above; assay type: binding
T2 construct: gene MAP2K2; active MEK2 human recombinant protein
T2 sequence (P36507 whole entry): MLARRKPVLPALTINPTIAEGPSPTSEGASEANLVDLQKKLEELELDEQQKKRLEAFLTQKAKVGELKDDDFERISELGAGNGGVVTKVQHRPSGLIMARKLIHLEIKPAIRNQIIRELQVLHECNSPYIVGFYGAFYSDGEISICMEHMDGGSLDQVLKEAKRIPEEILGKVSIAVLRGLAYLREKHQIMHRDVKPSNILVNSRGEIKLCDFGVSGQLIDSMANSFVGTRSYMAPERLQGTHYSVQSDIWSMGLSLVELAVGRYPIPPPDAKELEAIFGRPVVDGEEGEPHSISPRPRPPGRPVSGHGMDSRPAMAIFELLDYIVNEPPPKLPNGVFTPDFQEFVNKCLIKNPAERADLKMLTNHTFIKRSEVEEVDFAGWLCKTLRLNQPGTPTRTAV

[3] = molecular target: CDK4 (Homo sapiens, UniProt P11802); experiment: pull-down with domperidone-Sepharose 4B beads and DARTS in KYSE150/KYSE450 lysates; assay type: cell-based
Sequence of CDK4 (P11802 2-303): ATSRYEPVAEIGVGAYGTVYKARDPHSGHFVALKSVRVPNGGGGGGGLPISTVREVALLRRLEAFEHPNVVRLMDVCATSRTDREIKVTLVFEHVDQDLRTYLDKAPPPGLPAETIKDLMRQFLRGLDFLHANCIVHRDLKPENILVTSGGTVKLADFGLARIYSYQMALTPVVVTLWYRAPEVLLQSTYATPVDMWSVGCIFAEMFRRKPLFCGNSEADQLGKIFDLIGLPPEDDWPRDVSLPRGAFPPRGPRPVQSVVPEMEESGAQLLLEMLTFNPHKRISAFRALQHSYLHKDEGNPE

T1 sequence (Q02750 whole entry): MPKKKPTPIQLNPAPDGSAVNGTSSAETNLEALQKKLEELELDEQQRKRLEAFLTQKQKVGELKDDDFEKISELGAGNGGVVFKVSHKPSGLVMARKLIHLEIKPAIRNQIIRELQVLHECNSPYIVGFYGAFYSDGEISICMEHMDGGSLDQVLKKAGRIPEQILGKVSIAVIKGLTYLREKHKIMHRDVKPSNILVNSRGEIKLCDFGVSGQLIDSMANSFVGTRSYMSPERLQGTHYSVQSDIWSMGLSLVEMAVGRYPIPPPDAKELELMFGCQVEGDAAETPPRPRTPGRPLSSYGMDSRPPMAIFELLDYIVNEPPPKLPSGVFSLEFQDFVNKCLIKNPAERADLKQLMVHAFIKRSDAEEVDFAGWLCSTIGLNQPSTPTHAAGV

In the case of `O=c1[nH]c2ccccc2n1CCCN1CCC(n2c(=O)[nH]c3cc(Cl)ccc32)CC1` [compound 9, Domperidone], the Kd [1] is reported as 6.2 µM, the Kd [2] is reported as 6.66 µM and the “pull-down with domperidone-Sepharose 4B beads and DARTS in KYSE150/KYSE450 lysat” value [3] is reported as “DARTS assay also validated that domperidone could directly interact with MEK1, MEK2 and CDK4 ex vivo”.
